Reference: patent US9586951B2 (FUJIFILM Corporation, priority 2013, dated 2017)
pIC50: −log10 of the molar value.

Key:
ATM = target: T1, ATM (Homo sapiens, UniProt Q13315); experiment: ATM inhibition test (phosphorylation of Chk2 generated by ionizing radiation, AlphaScreen SureFire); assay type: cell-based; conditions: phosphorylated Chk2 in NCI-H460 cells, ionizing radiation 8Gy, 1 hour after test compound treatment; read-out: ATM inhibitory activity
T1 construct: detecting phosphorylation of Chk2 in a human non-small cell lung cancer cell line NCI-H460 (ATCC company); host or cells: NCI-H460 human non-small cell lung cancer cells
T1 sequence (Q13315 whole entry): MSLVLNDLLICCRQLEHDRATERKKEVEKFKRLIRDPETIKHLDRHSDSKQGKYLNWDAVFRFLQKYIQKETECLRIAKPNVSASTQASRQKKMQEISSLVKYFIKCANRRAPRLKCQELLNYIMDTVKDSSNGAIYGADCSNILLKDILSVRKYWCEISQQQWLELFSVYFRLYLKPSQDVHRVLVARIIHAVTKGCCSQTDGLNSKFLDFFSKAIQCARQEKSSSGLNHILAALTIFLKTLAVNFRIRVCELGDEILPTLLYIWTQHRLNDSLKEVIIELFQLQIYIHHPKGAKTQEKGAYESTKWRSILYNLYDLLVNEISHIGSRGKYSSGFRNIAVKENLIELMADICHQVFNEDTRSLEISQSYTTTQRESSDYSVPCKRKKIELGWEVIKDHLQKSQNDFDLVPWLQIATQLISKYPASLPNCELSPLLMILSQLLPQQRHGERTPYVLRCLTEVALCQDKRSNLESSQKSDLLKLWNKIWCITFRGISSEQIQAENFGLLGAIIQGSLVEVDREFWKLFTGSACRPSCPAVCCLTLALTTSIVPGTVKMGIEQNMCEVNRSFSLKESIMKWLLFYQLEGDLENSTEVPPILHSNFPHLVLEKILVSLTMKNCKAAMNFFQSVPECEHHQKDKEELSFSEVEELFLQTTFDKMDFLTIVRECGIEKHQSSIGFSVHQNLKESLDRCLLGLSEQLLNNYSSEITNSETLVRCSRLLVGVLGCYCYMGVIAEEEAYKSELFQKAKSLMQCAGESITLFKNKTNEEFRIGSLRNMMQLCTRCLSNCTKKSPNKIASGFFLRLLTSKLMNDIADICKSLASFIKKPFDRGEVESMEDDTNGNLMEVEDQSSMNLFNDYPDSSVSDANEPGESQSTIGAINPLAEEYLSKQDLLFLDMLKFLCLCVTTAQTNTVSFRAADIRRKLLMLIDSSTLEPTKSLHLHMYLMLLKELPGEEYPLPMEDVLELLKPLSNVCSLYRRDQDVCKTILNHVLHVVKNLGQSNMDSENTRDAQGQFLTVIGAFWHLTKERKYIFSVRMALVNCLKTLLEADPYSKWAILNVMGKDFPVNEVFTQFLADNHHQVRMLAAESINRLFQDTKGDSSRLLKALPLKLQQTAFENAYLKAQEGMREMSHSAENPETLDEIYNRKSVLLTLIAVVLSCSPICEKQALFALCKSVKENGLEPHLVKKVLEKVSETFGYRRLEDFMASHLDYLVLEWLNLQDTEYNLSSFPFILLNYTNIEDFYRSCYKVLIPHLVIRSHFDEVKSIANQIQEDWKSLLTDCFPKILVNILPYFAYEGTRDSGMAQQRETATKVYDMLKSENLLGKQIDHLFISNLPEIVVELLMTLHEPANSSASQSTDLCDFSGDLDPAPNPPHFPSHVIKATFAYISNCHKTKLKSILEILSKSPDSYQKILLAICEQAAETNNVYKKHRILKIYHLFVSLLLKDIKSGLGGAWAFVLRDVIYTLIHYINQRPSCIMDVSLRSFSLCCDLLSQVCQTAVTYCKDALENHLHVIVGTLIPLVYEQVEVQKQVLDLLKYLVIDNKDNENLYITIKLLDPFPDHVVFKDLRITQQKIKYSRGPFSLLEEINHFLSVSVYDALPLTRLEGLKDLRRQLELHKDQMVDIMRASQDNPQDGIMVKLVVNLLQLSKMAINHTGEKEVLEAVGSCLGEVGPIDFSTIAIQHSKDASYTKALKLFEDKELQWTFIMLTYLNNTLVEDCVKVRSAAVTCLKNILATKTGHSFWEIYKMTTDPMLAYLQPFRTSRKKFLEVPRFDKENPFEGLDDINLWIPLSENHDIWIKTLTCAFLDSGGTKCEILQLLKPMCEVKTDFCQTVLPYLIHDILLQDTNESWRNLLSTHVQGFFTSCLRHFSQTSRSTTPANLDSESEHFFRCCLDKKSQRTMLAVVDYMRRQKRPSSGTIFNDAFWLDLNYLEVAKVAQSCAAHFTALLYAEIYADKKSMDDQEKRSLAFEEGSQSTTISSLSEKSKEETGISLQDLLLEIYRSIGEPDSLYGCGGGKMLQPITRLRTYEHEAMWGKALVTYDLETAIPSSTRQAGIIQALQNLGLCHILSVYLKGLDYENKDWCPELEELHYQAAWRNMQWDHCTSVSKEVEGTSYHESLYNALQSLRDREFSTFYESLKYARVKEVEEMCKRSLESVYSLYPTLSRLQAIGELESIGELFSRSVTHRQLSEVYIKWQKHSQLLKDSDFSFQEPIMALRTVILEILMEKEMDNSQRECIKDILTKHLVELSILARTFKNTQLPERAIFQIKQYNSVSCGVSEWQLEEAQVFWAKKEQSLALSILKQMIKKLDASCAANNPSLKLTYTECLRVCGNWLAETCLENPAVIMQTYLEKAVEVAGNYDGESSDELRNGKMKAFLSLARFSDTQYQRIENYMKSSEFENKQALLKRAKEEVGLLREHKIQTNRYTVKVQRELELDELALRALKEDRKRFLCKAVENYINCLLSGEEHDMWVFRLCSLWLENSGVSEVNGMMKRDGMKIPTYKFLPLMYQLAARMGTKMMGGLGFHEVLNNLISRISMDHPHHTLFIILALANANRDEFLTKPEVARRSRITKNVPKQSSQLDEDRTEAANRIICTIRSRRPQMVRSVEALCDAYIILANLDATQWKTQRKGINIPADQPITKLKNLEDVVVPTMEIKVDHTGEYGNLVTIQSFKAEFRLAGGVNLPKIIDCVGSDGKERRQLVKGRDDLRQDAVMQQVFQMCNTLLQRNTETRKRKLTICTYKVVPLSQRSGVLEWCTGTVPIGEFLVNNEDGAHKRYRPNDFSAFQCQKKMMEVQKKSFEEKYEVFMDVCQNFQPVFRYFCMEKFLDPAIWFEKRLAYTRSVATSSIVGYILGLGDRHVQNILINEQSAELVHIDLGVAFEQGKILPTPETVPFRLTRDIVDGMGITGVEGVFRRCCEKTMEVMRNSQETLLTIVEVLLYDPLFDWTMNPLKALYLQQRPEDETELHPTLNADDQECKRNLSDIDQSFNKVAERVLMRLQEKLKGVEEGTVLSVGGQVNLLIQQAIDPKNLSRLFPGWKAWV
Procedure, shortened: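 Human NCI-H460 lung cancer cells were treated with compound for 1 h, then irradiated at 8Gy and incubated 1 h at 37° C. Phospho-Chk2 was quantified by AlphaScreen SureFire; inhibition % was normalised between irradiated untreated and non-irradiated untreated wells.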

[1] = tested on: human non-small cell lung cancer cell line NCI-H460; experiment: Cell proliferation inhibition test by sensitivity-enhancing to ionizing radiation (Cell Titer Glo); assay type: cell-based; conditions: concentration in which SER became 2, NCI-H460 cells, ionizing radiation 2 Gy, cultured 120 hour
Procedure: A human non-small cell lung cancer cell line NCI-H460 (ATCC company) was adjusted so as to be 2×10^3 cells/mL in a RPMI-1640 medium containing penicillin/streptomycin and FBS having a final concentration of 10%, and this was seeded by 100 μL per well in 96-well CellBIND® plates (Corning International Inc.). After 24 hours, the medium of cells was replaced with 100 μL of a medium including serially diluted liquid of the test compound or DMSO having a final concentration of 0.1%. 30 minutes after the medium was replaced, half of the plates were irradiated with ionizing radiation 2 Gy (Faxitron Bioptics, LLC, RX-650 type). The cells of the plates irradiated with ionizing radiation and the plates not being irradiated with ionizing radiation were cultured at 37° C. for 120 hour in 5% CO2. After a Cell Titer Glo reaction liquid of an equal volume was added to each well, the amount of luminescence was measured, according to the instruction book of Cell Titer Glo (Promega Corporation). Since the amount of luminescence is proportional to the ATP concentration in cells, the amount of luminescence was used as an indicator of the number of viable cells. Sensitivity-enhancing effects (SER) to ionizing radiation by the test compound was calculated by the following equation. SER=(amount of luminescence of wells including DMSO having a final concentration of 0.1% in the plates irradiated with ionizing radiation×amount of luminescence of wells including a compound in the plates not being irradiated with ionizing radiation)/(amount of luminescence of wells including the test compound in the plates irradiated with ionizing radiation×amount of luminescence of wells including DMSO having a final concentration of 0.1% in the plates not being irradiated with ionizing radiation)
SER at each compound concentration was plotted by nonlinear regression fit (FitModel (205)) by a sigmoidal dose-response equation using XLfit software (IDBS), and the concentration (SER2) in which SER became 2 was calculated.

pIC50 (ATM) | Structure (SMILES) | SER2 (concentration at which the radiation sensitivity-enhancement ratio reaches 2) ([1]; Homo sapiens, NCI-H460, 120 h) | SER2 (concentration at which the radiation sensitivity-enhancement ratio reaches 2) ([1]; Homo sapiens) | SER2 (concentration at which the radiation sensitivity-enhancement ratio reaches 2) [1]
> 7.00 | Cc1ccnc(C(C)Nc2ccc3c(c2)Sc2cccc(-c4cc(N5CCOCC5)cc(=O)[nH]4)c2S3)c1 (single isomer, unassigned) [Example 1-12-135-2, 6-(7-((1-(4-methylpyridin-2-yl)ethyl)amino)thianthren-1-yl)-4-morpholinopyridin-2(1H)-one] | – | – | 100 to 500 nM
> 7.00 | Cc1cccc(C(C)Nc2ccc3c(c2)Sc2cccc(-c4cc(N5CCOCC5)cc(=O)[nH]4)c2S3)n1 (single isomer, unassigned) [Example 1-12-136-1, 6-(7-((1-(6-methylpyridin-2-yl)ethyl)amino)thianthren-1-yl)-4-morpholinopyridin-2(1H)-one] | < 100 nM | – | –
> 7.00 | Cc1cccc(C(C)Nc2ccc3c(c2)Sc2cccc(-c4cc(N5CCOCC5)cc(=O)[nH]4)c2S3)n1 (single isomer, unassigned) [Example 1-12-136-2, 6-(7-((1-(6-methylpyridin-2-yl)ethyl)amino)thianthren-1-yl)-4-morpholinopyridin-2(1H)-one] | – | – | 100 to 500 nM
> 7.00 | Cc1ccnc(C(CO)Nc2ccc3c(c2)Sc2cccc(-c4cc(N5CCOCC5)cc(=O)[nH]4)c2S3)c1 (single isomer, unassigned) [Example 1-12-138-2, 6-(7-((2-hydroxy-1-(4-methylpyridin-2-yl)ethyl)amino)thianthren-1-yl)-4-morpholinopyridin-2(1H)-one] | < 100 nM | – | –
> 7.00 | Cc1cccc(C(CO)Nc2ccc3c(c2)Sc2cccc(-c4cc(N5CCOCC5)cc(=O)[nH]4)c2S3)n1 (single isomer, unassigned) [Example 1-12-140-2, 6-(7-((2-hydroxy-1-(6-methylpyridin-2-yl)ethyl)amino)thianthren-1-yl)-4-morpholinopyridin-2(1H)-one] | < 100 nM | – | –
> 7.00 | Cc1nccc(C(C)Nc2ccc3c(c2)Sc2cccc(-c4cc(N5CCOCC5)cc(=O)[nH]4)c2S3)n1 (single isomer, unassigned) [Example 1-12-141-1, 6-(7-((1-(2-methylpyrimidin-4-yl)ethyl)amino)thianthren-1-yl)-4-morpholinopyridin-2(1H)-one] | 100 to 500 nM | – | –
> 7.00 | Cc1ccc(C(C)Nc2ccc3c(c2)Sc2cccc(-c4cc(N5CCOCC5)cc(=O)[nH]4)c2S3)nc1 (single isomer, unassigned) [Example 1-12-143-1, 6-(7-((1-(5-methylpyridin-2-yl)ethyl)amino)thianthren-1-yl)-4-morpholinopyridin-2(1H)-one] | < 100 nM | – | –
> 7.00 | Cc1ccnc(C(C)Nc2ccc3c(c2)Sc2cccc(-c4cc(N5CCOCC5)cc(=O)[nH]4)c2S3)n1 (single isomer, unassigned) [Example 1-12-144-1, 6-(7-((1-(4-methylpyrimidin-2-yl)ethyl)amino)thianthren-1-yl)-4-morpholinopyridin-2(1H)-one] | < 100 nM | – | –

Further lines, the molecule ahead of its results:

Structure (SMILES) | pIC50 (ATM) | SER2 (concentration at which the radiation sensitivity-enhancement ratio reaches 2) ([1]; Homo sapiens, NCI-H460, 120 h) | SER2 (concentration at which the radiation sensitivity-enhancement ratio reaches 2) ([1]; Homo sapiens) | SER2 (concentration at which the radiation sensitivity-enhancement ratio reaches 2) [1]
COCC(CN1CCOCC1)Nc1ccc2c(c1)Sc1cccc(-c3cc(N4CCOCC4)cc(=O)[nH]3)c1S2 (racemic) [Example 1-17-1-1, 6-(7-((1-Methoxy-3-morpholinopropan-2-yl)amino)thianthren-1-yl)-4-morpholinopyridin-2(1H)-one] | > 7.00 | < 100 nM | – | –
O=c1cc(N2CCOCC2)cc(-c2cccc3c2Sc2ccc(NC(CF)CN4CCOCC4)cc2S3)[nH]1 (racemic) [Example 1-41-1-1, 6-(7-((1-Fluoro-3-morpholinopropan-2-yl)amino)thianthren-1-yl)-4-morpholinopyridin-2(1H)-one] | > 7.00 | – | < 100 nM | –
Cc1ccnc(C(C)Nc2ccc3c(c2)Sc2cccc(-c4cc(N5CCOCC5)cc(=O)[nH]4)c2S3)c1 (single isomer, unassigned) [Example 1-12-135-1, 6-(7-((1-(4-methylpyridin-2-yl)ethyl)amino)thianthren-1-yl)-4-morpholinopyridin-2(1H)-one] | > 7.00 | < 100 nM | – | –
Cc1cnc(C(C)Nc2ccc3c(c2)Sc2cccc(-c4cc(N5CCOCC5)cc(=O)[nH]4)c2S3)cn1 (single isomer, unassigned) [Example 1-12-137-1, 6-(7-((1-(5-methylpyrazin-2-yl)ethyl)amino)thianthren-1-yl)-4-morpholinopyridin-2(1H)-one] | > 7.00 | < 100 nM | – | –
Cc1cnc(C(C)Nc2ccc3c(c2)Sc2cccc(-c4cc(N5CCOCC5)cc(=O)[nH]4)c2S3)cn1 (single isomer, unassigned) [Example 1-12-137-2, 6-(7-((1-(5-methylpyrazin-2-yl)ethyl)amino)thianthren-1-yl)-4-morpholinopyridin-2(1H)-one] | > 7.00 | – | – | 100 to 500 nM
Cc1cnc(C(C)Nc2ccc3c(c2)Sc2cccc(-c4cc(N5CCOCC5)cc(=O)[nH]4)c2S3)nc1 (single isomer, unassigned) [Example 1-12-139-1, 6-(7-((1-(5-methylpyrimidin-2-yl)ethyl)amino)thianthren-1-yl)-4-morpholinopyridin-2(1H)-one] | > 7.00 | < 100 nM | – | –
Cc1cnc(C(C)Nc2ccc3c(c2)Sc2cccc(-c4cc(N5CCOCC5)cc(=O)[nH]4)c2S3)nc1 (single isomer, unassigned) [Example 1-12-139-2, 6-(7-((1-(5-methylpyrimidin-2-yl)ethyl)amino)thianthren-1-yl)-4-morpholinopyridin-2(1H)-one] | > 7.00 | – | – | 100 to 500 nM
CC(Nc1ccc2c(c1)Sc1cccc(-c3cc(N4CCOCC4)cc(=O)[nH]3)c1S2)c1ncc(CO)cn1 (single isomer, unassigned) [Example 1-12-142-1, 6-(7-((1-(5-(hydroxymethyl)pyrimidin-2-yl)ethyl)amino)thianthren-1-yl)-4-morpholinopyridin-2(1H)-one] | > 7.00 | 100 to 500 nM | – | –
COc1cncc(C(C)Nc2ccc3c(c2)Sc2cccc(-c4cc(N5CCOCC5)cc(=O)[nH]4)c2S3)c1 (single isomer, unassigned) [Example 1-12-145-1, 6-(7-((1-(5-methoxypyridin-3-yl)ethyl)amino)thianthren-1-yl)-4-morpholinopyridin-2(1H)-one] | > 7.00 | 100 to 500 nM | – | –
CC(Nc1ccc2c(c1)Sc1cccc(-c3cc(N4CCOCC4)cc(=O)[nH]3)c1S2)c1cc(C#N)ncn1 (single isomer, unassigned) [Example 1-12-146-1, 6-(1-((6-(4-morpholino-6-oxo-1,6-dihydropyridin-2-yl)thianthren-2-yl)amino)ethyl)pyrimidine-4-carbonitrile] | > 7.00 | 100 to 500 nM | – | –
CC(CN1CCOCC1)Nc1ccc2c(c1)Sc1cccc(-c3cc(N4CCOCC4)cc(=O)[nH]3)c1S2 (single isomer, unassigned) [Example 1-13-2-2, 4-morpholino-6-(7-((1-morpholinopropan-2-yl)amino)thianthren-1-yl)pyridin-2(1H)-one] | > 7.00 | < 100 nM | – | –
CC(CN1CCN(C)CC1)Nc1ccc2c(c1)Sc1cccc(-c3cc(N4CCOCC4)cc(=O)[nH]3)c1S2 (single isomer, unassigned) [Example 1-13-3-2, 6-(7-((1-(4-methylpiperazin-1-yl)propan-2-yl)amino)thianthren-1-yl)-4-morpholinopyridin-2(1H)-one] | > 7.00 | 100 to 500 nM | – | –
O=c1cc(N2CCOCC2)cc(-c2cccc3c2Sc2ccc(NC4CCCC4N4CCOCC4)cc2S3)[nH]1 (single isomer, unassigned) [Example 1-16-1-2, 4-morpholino-6-(7-((2-morpholinocyclopentyl)amino)thianthren-1-yl)pyridin-2(1H)-one] | > 7.00 | < 100 nM | – | –
